# Assays:
# Test in all cases: relative viability (nuclei count vs DMSO), 5 days (fraction); higher = more cells survive
# [1] = compound: CN1C=C(C2=CC=CC=C21)/C=C\3/C4=C(C=CC=N4)NC3=O + Nc1nc2[nH]cc(CCc3ccc(C(=O)N[C@@H](CCC(=O)O)C(=O)O)cc3)c2c(=O)[nH]1 [Pemetrexed] (partner 0.2 µM)
# How it was run: (§1)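 Each reported value is a median over duplicate plates. It expresses relative viability: treated-well nuclei count divided by vehicle-well nuclei count. Lung cancer cell lines in 1536-well plates were dosed by pin tool a day after seeding, alone with one drug or with a fixed anchor-drug dose plus five library-drug doses (not always all listed) in √10 steps, and nuclei were counted after 5 days.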
# [2] = compound: CC(=O)Nc1cccc(-n2c(=O)n(C3CC3)c(=O)c3c(Nc4ccc(I)cc4F)n(C)c(=O)c(C)c32)c1 [Trametinib] + COc1cccc2cc(-c3nc([C@H]4CC[C@H](C(=O)O)CC4)n4ncnc(N)c34)[nH]c12 [OSI-027] (partner 0.5 µM)
# How it was run: as §1
# [3] = compound: CN1C=C(C2=CC=CC=C21)/C=C\3/C4=C(C=CC=N4)NC3=O + C[C@]1(O)C[C@@H](c2nc(-c3ccc4ccc(-c5ccccc5)nc4c3)c3c(N)nccn32)C1 [Linsitinib] (partner 1 µM)
# How it was run: as §1
# [4] = compound: CC(=O)Nc1cccc(-n2c(=O)n(C3CC3)c(=O)c3c(Nc4ccc(I)cc4F)n(C)c(=O)c(C)c32)c1 [Trametinib] + CC(C)C[C@H](NC(=O)[C@H](Cc1ccccc1)NC(=O)c1cnccn1)B(O)O [Bortezomib] (partner 0.002 µM)
# How it was run: as §1
Cell Line,relative viability ([1]; first compound 0.02 µM),relative viability ([1]; first compound 0.06325 µM),relative viability ([1]; first compound 0.2 µM),relative viability ([1]; first compound 0.6325 µM),relative viability ([1]; first compound 2 µM),relative viability ([2]; first compound 0.0025 µM),relative viability ([2]; first compound 0.007906 µM),relative viability ([2]; first compound 0.025 µM),relative viability ([2]; first compound 0.07906 µM),relative viability ([2]; first compound 0.25 µM),relative viability ([3]; first compound 0.02 µM),relative viability ([3]; first compound 0.06325 µM),relative viability ([3]; first compound 0.2 µM),relative viability ([3]; first compound 0.6325 µM),relative viability ([3]; first compound 2 µM),relative viability ([4]; first compound 0.0025 µM),relative viability ([4]; first compound 0.007906 µM),relative viability ([4]; first compound 0.025 µM),relative viability ([4]; first compound 0.07906 µM),relative viability ([4]; first compound 0.25 µM)
LCLC-103H,0.455,0.455,0.483,0.482,0.462,0.463,0.44,0.379,0.334,0.421,1.13,1.13,1.07,1.13,1.11,1.16,0.977,0.887,0.821,0.626
LOU-NH91,0.368,0.387,0.365,0.348,0.372,0.735,0.654,0.568,0.53,0.478,0.858,0.889,0.851,0.928,0.927,0.505,0.489,0.491,0.508,0.334
LU99A,0.156,0.182,0.176,0.173,0.186,0.301,0.294,0.287,0.326,0.297,0.534,0.506,0.509,0.485,0.617,1.08,1.21,0.815,0.726,0.407
LXF-289,0.925,0.913,0.928,0.881,0.974,0.766,0.656,0.452,0.453,0.243,0.901,0.935,1.04,1,0.999,0.872,0.812,0.757,0.703,0.459
NCI-H23,0.678,0.598,0.576,0.788,0.654,0.588,0.429,0.268,0.374,0.158,0.614,0.648,,0.655,0.631,0.853,1.01,0.364,0.377,0.21
NCI-H322M,0.606,0.575,0.598,0.673,0.641,0.504,0.483,0.467,0.41,0.383,1.01,0.993,0.874,0.819,0.862,1.29,1.14,0.879,1.03,0.717
NCI-H441,0.275,0.241,0.264,0.285,0.251,0.543,0.56,0.392,0.446,0.196,0.634,0.588,0.494,0.424,0.57,0.474,0.55,0.72,0.475,0.17
NCI-H460,0.0583,0.0649,0.0603,0.0702,0.0616,0.557,0.332,0.244,0.141,0.0441,0.8,0.838,0.789,,0.906,1.03,0.82,0.544,0.346,0.043
NCI-H520,0.67,0.53,0.698,0.672,0.732,0.225,0.272,0.246,0.248,0.261,0.87,0.808,0.963,0.96,1.02,0.612,0.485,0.444,0.44,0.126
NCI-H596,0.494,0.494,0.527,0.456,0.531,0.531,0.62,0.407,0.487,0.249,0.976,1.08,0.934,0.935,1.05,0.759,0.892,0.795,1.47,0.474
NCI-H647,0.122,0.173,0.153,0.167,0.175,0.674,0.696,0.533,0.368,0.175,0.933,0.922,0.896,1.2,1.1,0.853,0.75,0.652,0.654,0.294
NCI-H650,0.934,0.875,,0.805,0.918,0.645,0.765,0.619,0.714,0.567,0.91,0.955,,0.677,0.807,1.06,1.15,0.791,0.729,0.276
NCI-H661,1.02,0.902,0.89,0.985,0.972,0.686,0.595,0.51,0.522,0.389,0.689,0.536,0.578,0.486,0.559,0.82,0.689,0.728,0.534,0.54
NCI-H838,0.249,0.235,0.234,0.247,0.246,0.301,0.298,0.227,0.281,0.236,0.662,0.866,0.944,0.904,0.986,0.719,0.563,,0.557,0.224
NCI-H1355,0.885,0.924,0.99,0.916,0.851,0.344,0.327,0.241,0.263,0.242,0.702,0.748,0.73,0.56,0.632,0.981,1.04,0.554,0.847,0.266
NCI-H1437,0.305,0.294,0.344,0.343,0.335,0.565,0.518,0.262,0.3,0.295,1.06,1.12,1.25,1.18,1.2,0.463,0.257,0.179,0.205,0.174

Cell Line,relative viability ([1]; first compound 0.02 µM),relative viability ([1]; first compound 0.06325 µM),relative viability ([1]; first compound 0.2 µM),relative viability ([1]; first compound 0.6325 µM),relative viability ([1]; first compound 2 µM),relative viability ([2]; first compound 0.0025 µM),relative viability ([2]; first compound 0.007906 µM),relative viability ([2]; first compound 0.025 µM),relative viability ([2]; first compound 0.07906 µM),relative viability ([2]; first compound 0.25 µM),relative viability ([3]; first compound 0.02 µM),relative viability ([3]; first compound 0.06325 µM),relative viability ([3]; first compound 0.2 µM),relative viability ([3]; first compound 0.6325 µM),relative viability ([3]; first compound 2 µM),relative viability ([4]; first compound 0.0025 µM),relative viability ([4]; first compound 0.007906 µM),relative viability ([4]; first compound 0.025 µM),relative viability ([4]; first compound 0.07906 µM),relative viability ([4]; first compound 0.25 µM)
NCI-H1563,0.827,0.694,0.703,0.665,0.752,0.745,0.819,0.772,0.884,0.623,1.24,1.17,1.11,1.17,1.26,0.854,0.794,0.824,0.682,0.616
NCI-H1651,0.651,0.579,0.574,0.648,0.644,0.54,0.702,0.443,0.603,0.469,0.958,0.989,1.03,1.06,1.05,0.967,0.9,0.801,0.83,0.43
NCI-H1666,0.896,0.861,0.847,0.765,0.737,0.765,0.811,0.632,0.675,0.552,0.85,0.712,0.79,0.748,0.665,0.639,0.591,0.499,0.452,0.401
NCI-H1734,0.348,0.4,,0.425,0.418,0.591,0.517,0.404,0.492,0.278,0.803,0.853,,1.09,0.889,0.901,0.987,,0.734,0.349
NCI-H1755,0.351,0.365,0.427,0.423,0.373,0.668,0.673,0.559,0.707,0.664,0.95,1.01,0.967,0.968,0.991,0.847,0.835,0.806,0.843,0.679
NCI-H1792,1.06,0.813,0.496,0.74,0.825,0.565,0.62,0.745,0.618,0.51,0.37,0.495,0.391,,0.486,0.971,0.85,0.647,0.597,0.455
NCI-H1915,0.463,0.41,0.579,0.487,0.504,0.538,0.314,0.293,0.21,0.159,1.07,1.1,1.08,1.12,1.06,0.931,0.816,0.825,0.756,0.139
NCI-H1975,0.265,0.28,0.3,0.283,0.264,0.643,0.422,0.402,0.299,0.196,0.921,1.04,0.982,0.694,0.661,0.303,0.224,0.206,0.173,0.169
NCI-H1993,0.564,0.515,0.641,0.457,0.534,0.545,0.606,0.624,0.657,0.699,0.539,0.635,0.71,0.765,0.621,0.861,0.834,0.558,0.48,0.596
NCI-H2009,1.02,0.947,1.06,1.02,1.02,0.505,0.405,0.229,0.226,0.247,1.24,1.11,1.23,1.23,1.25,0.929,0.67,0.3,0.332,0.195
NCI-H2023,0.274,0.171,,0.25,0.2,0.344,0.297,0.229,0.311,0.188,0.615,0.657,0.628,0.665,0.692,0.957,0.791,0.582,0.806,0.212
NCI-H2085,0.789,0.927,0.836,0.975,0.967,0.469,0.352,0.281,0.329,0.298,0.867,0.825,0.867,0.866,1.02,0.994,0.799,0.751,0.783,0.6
NCI-H2087,0.671,0.62,0.622,0.631,0.656,0.323,0.275,0.139,0.137,0.101,0.82,0.708,1.02,0.944,1.23,0.899,0.669,0.446,0.327,0.129
NCI-H2126,0.694,0.62,0.674,0.669,0.594,0.671,0.506,0.375,0.535,0.488,0.739,0.751,0.727,0.745,0.65,1.11,0.956,0.685,0.983,0.769
NCI-H2228,0.337,0.305,0.349,0.372,0.365,0.498,0.427,0.222,0.237,0.192,0.53,0.463,,0.603,0.759,1.02,0.876,0.801,0.711,0.433
NCI-H2347,0.445,0.454,0.444,0.423,0.426,0.394,0.216,0.185,0.226,0.167,0.998,0.963,0.944,0.986,0.959,1.08,0.818,0.338,0.389,0.337
